Legend:
[1] = molecular target: T1, human CRTH2 expression cell KB8 (Homo sapiens, UniProt Q9Y5Y4); test: CRTH2 binding test (3H-PGD2 binding to KB8 cells); settings: 3H-PGD2 5 nM, 4° C., one hour, IC50 class, read-out: binding inhibitory activity
T1 construct: host or cells: KB8 cells (human CRTH2 expression cell)
T1 sequence (Q9Y5Y4 1-395): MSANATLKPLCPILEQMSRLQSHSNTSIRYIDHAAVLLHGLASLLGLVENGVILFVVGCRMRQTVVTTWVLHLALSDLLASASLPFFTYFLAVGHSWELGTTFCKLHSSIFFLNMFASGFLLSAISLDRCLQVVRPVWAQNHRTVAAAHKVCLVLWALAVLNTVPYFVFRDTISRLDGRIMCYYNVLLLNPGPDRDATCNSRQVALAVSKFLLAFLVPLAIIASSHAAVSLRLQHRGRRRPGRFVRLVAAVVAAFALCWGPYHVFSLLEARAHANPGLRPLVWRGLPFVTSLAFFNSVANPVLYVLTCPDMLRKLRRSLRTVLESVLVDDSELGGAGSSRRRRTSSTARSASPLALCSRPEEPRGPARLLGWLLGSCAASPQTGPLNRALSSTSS
Procedure: CRTH2 binding inhibitory activity of the compound of the present invention was considered by using a binding test between human CRTH2 expression cell KB8 (BML, INC.) and ^3H-labeled prostaglandin D2 (hereinafter, abbreviated as ^3H-PGD2, manufactured by GE Healthcare).
KB8 was suspended in a reaction buffer solution (Hank's balanced salt solution (Invitrogen) containing 10 mM HEPES (Invitrogen)), which was dispensed in a 96 well plate (Coaster) so that 2×10^5 cells/well are placed. Furthermore, the compound of the present invention and ^3H-PGD2 (final concentration: 5 nM) were added, stirred, and incubated at 4° C.
One hour later, cells were collected on GF/C Filter Plate (PerkinElmer) that had been pre-coated with 0.5% polyethyleneimine solution (SIGMA) by using a Cell Harvester (Packard BioScience), and the radioactivity of the cells was measured by using Top count NXT (PerkinElmer) (a value measured herein was represented by a measurement value “a”). The same procedure was carried out in the absence of the compound, and a measurement value “b” was obtained; and the same procedure was carried out in the absence of the compound and in the presence of non-labeled PGD2 (final concentration: 50 μM), a measurement value “c” was obtained.
The binding inhibition rate of the compound was calculated by the following calculation formula: Bonding inhibitory rate(%)=[1−(a−c)/(b−c)]×100
That is to say, by using binding inhibition rates of compounds to be tested having various concentrations, the IC50 value was calculated according to a dose-dependent inhibition curve analyzed by using XLfit (IDBS) as a data analysis software, and the calculated value was defined as an indicator of the inhibitory activity. In Table 9, A denotes an inhibitory activity showing the IC50 value of less than 50 nM; B denotes an inhibitory activity showing the IC50 value of 50 nM or greater and less than 500 nM; C denotes an inhibitory activity showing the IC50 value of 500 nM or greater and less than 1000 nM; and D denotes an inhibitory activity showing the IC50 value of 1000 nM or greater.

[2] = molecular target: T2, CRTH2 (KB8 cells) (Homo sapiens, UniProt Q9Y5Y4); test: CRTH2 antagonist test (PGD2-induced intracellular calcium ion concentration increase in KB8 cells); assay type: cell-based; settings: PGD2 final concentration 100 nM, Fluo-4-AM fluorescence, read-out: antagonist activity (IC50 value, inhibition of calcium ion concentration increase)
T2 construct: host or cells: KB8 cells (human CRTH2 expression cell)
T2 sequence (Q9Y5Y4 1-395): T1 sequence (Q9Y5Y4 1-395)
Summary of the method: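 Fluo-4-AM-loaded KB8 cells in HBSS with 10 mM HEPES and 1 mM CaCl2 received compound plus PGD2 (final 100 nM); peak fluorescence followed over time. Inhibition was computed against no-compound and unlabelled-PGD2 controls, and IC50 obtained from a dose-response curve.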

IC50 [1]	IC50 [2]	Compound
< 50 nM	< 50 nM	O=C(O)Cc1cnc(C(=O)c2ccc(NC(=O)c3ccc(F)c(Cl)c3)cc2)c2ccccc12 [Example 34]
< 50 nM	< 50 nM	O=C(O)Cc1cnc(C(=O)c2ccc(NC(=O)/C=C/c3ccc(Cl)c(Cl)c3)cc2)c2ccccc12 [Example 6]
< 50 nM	< 50 nM	Cc1ccc(C(=O)Nc2ccc(C(=O)c3ncc(CC(=O)O)c4ccccc34)cc2)cc1 [Example 17]
< 50 nM	≥ 1000 nM	N#Cc1ccc(C(=O)Nc2ccc(C(=O)c3ncc(CC(=O)O)c4ccccc34)cc2)cc1 [Example 13]
< 50 nM	50 to 500 nM	O=C(O)Cc1cnc(C(=O)c2ccc(NC(=O)Cc3ccc(-c4ccccc4)cc3)cc2)c2ccccc12 [Example 22]
< 50 nM	< 50 nM	O=C(O)Cc1cnc(C(=O)c2ccc(NC(=O)c3ccc(-c4ccccc4)cc3)cc2)c2ccccc12 [Example 10]
< 50 nM	50 to 500 nM	O=C(O)Cc1cnc(C(=O)c2ccc(NC(=O)c3ccc(Oc4ccccc4)cc3)cc2)c2ccccc12 [Example 9]
< 50 nM	< 50 nM	O=C(O)Cc1cnc(C(=O)c2ccc(NC(=O)COc3ccc(Cl)c(Cl)c3)cc2)c2ccccc12 [Example 23]
< 50 nM	< 50 nM	O=C(O)Cc1cnc(C(=O)c2ccc(NC(=O)c3ccc(C(F)(F)F)cc3)cc2)c2ccccc12 [Example 11]
< 50 nM	50 to 500 nM	O=C(O)Cc1cnc(C(=O)c2ccc(OCCc3ccc(Cl)cc3)cc2)c2ccccc12 [Example 141, [1-({4-[2-(4-chlorophenyl)ethoxy]phenyl}carbonyl)isoquinolin-4-yl]acetic acid]
< 50 nM	< 50 nM	O=C(O)Cc1cnc(C(=O)c2ccc(NC(=O)c3cc4ccccc4o3)cc2)c2ccccc12 [Example 50]
< 50 nM	50 to 500 nM	O=C(O)Cc1cnc(C(=O)c2ccc(NC(=O)NCc3ccc(Cl)c(Cl)c3)cc2)c2ccccc12 [Example 132, {1-[(4-{[(3,4-dichlorobenzyl)carbamoyl]amino}phenyl)carbonyl]isoquinolin-4-yl}acetic acid]
< 50 nM	50 to 500 nM	O=C(O)Cc1cnc(C(=O)c2ccc(NC(=O)C3(c4ccc(Cl)c(Cl)c4)CC3)cc2)c2ccccc12 [Example 5]

Compound	IC50 [1]	IC50 [2]
CC(C)(C)OC(=O)Nc1ccc(C(=O)c2ncc(CC(=O)O)c3ccccc23)cc1 [Example 1, [1-({4-[(tert-butoxycarbonyl)amino]phenyl}carbonyl)isoquinolin-4-yl]acetic acid]	< 50 nM	50 to 500 nM
